We go through four compounds from patent publication US11133139B2, “Use of 1-chloro-2,3,3,3-tetrafluoropropene for isolating or extinguishing electric arcs” (Arkema France, priority 2018, dated 2021).

A short description of series [1]: Dielectric strength measurement in a homogeneous field, relative to SF6. It counts as physicochemical. How it is done:
The results are as follows, expressed in a relative manner as percentage of the dielectric strength of the reference gas SF6: • HCFO-1224yd(Z): 178%.
Its dielectric strength values (with an interelectrode distance of 12 mm) is then as follows, still with respect to SF6: • HCFO-1224yd(Z) at 17° C.: 159%.

The nature of series [2]: Toxicity (statement, no method).
Series [3] can be described thus: Flammability, thermal stability, saturated vapor pressure / condensation. It counts as physicochemical.
For series [4] the following is noted: prior art statement; cited from earlier work.
For series [5] the following is noted: prior art statement; cited from earlier work. The source holds these as a separate data set.

For `O=C=O` [CO2, carbon dioxide, reference compound], the “dielectric strength as % of that of SF6” value in series [1] (−15° C., 1.14 bar) is listed as 51%.

As for `FC(=CCl)C(F)(F)F` [HCFO-1224yd(Z), 1-chloro-2,3,3,3-tetrafluoropropene], the “dielectric strength as percentage of the dielectric strength of the reference gas SF6” value in series [1] (20° C., 1.3 bar, homogeneous field, interelectrode distance 12 mm) came out at 178%. For the same compound, the “dielectric strength with respect to SF6” value in series [1] (pure state, 17° C., 1.14 bar, interelectrode distance 12 mm) amounted to 159%. Besides, the toxicity entry in series [2] is recorded as “very low level of toxicity”. In addition, in series [3], the flammability result was “nonflammable” and the thermal stability result is on record as “thermally stable”. Further, the “minimum temperature of use in the pure state without condensation” value in series [3] (pressure of 1.14 bar) turned out to be 17 °C. This compound also showed a saturated pressure in series [3] (−15° C.) of 0.29 bar.

Consider `FS(F)(F)(F)(F)F` [SF6, sulfur hexafluoride], for which the “flammability (background)” value in series [4] is on record as “nonflammable”. In series [5], the “toxicity (background)” value was “nontoxic to man and animals”.

With `FC(F)(F)I` [trifluoroiodomethane], the “toxicity (background)” value in series [5] is “category-3 carcinogenic, mutagenic and reprotoxic substances”.
